According to PubChem BioAssay AID330 (DTP/NCI, 2004):
Inconclusive results and toxic doses are left out.

Tested on: P388 leukemia ip, CD2F1 mice, survival T/C
Assay: NCI In Vivo Anticancer Drug Screen. Data for tumor model P388 Leukemia (intraperitoneal) in CD2F1 (CDF1) mice
Conditions: endpoint: median survival time, higher = longer survival
In short: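 Mice carrying the transplanted tumor received test compound or vehicle. Survival was recorded in each group, and the value is the treated-group measurement divided by that of the vehicle-treated control group.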

[1] = dose: 100.0 mg/kg/injection, schedule: Q01DX009 (ip), vehicle: saline with Tween-80
[2] = dose: 200.0 mg/kg/injection, schedule: Q01DX009 (ip), vehicle: saline with Tween-80
[3] = dose: 50.0 mg/kg/injection, schedule: Q01DX009 (ip), vehicle: saline with Tween-80
[4] = dose: 50.0 mg/kg/injection, schedule: Q01DX009 (ip), vehicle: saline
[5] = dose: 100.0 mg/kg/injection, schedule: Q01DX009 (ip), vehicle: saline
[6] = dose: 200.0 mg/kg/injection, schedule: Q01DX009 (ip), vehicle: saline
[7] = dose: 50.0 mg/kg/injection, schedule: Q01DX005 (ip), vehicle: saline with Tween-80
[8] = dose: 100.0 mg/kg/injection, schedule: Q01DX005 (ip), vehicle: saline with Tween-80
[9] = dose: 200.0 mg/kg/injection, schedule: Q01DX005 (ip), vehicle: saline with Tween-80

**Q.** Which T/C (dose: 0.1 mg/kg/injection, schedule: Q01DX009 (ip), vehicle: saline) does the source give for C=C(C)C12OC3(c4ccccc4)OC1C1C4OC4(CO)C(O)C4(O)C(=O)C(C)=CC4C1(O3)C(C)C2OC(=O)c1ccccc1 (configuration not stated) here?
**A.** Its T/C is 91 % of control.

**Q.** And the T/C (dose: 0.2 mg/kg/injection, schedule: Q01DX009 (ip), vehicle: saline)?
**A.** The T/C was 100 % of control.

**Q.** And the T/C (dose: 0.4 mg/kg/injection, schedule: Q01DX009 (ip), vehicle: saline)?
**A.** The T/C was 90 % of control.

**Q.** What about the T/C (dose: 0.8 mg/kg/injection, schedule: Q01DX009 (ip), vehicle: saline) of the same compound?
**A.** The T/C was 96 % of control.

**Q.** With C[N+]1(C)CC=CCC1c1ccccc1 (configuration not stated) as the compound, how does the T/C (dose: 6.25 mg/kg/injection, schedule: Q01DX005 (ip), vehicle: saline) read?
**A.** Its T/C is 104 % of control.

**Q.** What about the T/C (dose: 12.5 mg/kg/injection, schedule: Q01DX005 (ip), vehicle: saline) of the same compound?
**A.** Its T/C is 105 % of control.

**Q.** What about the T/C (dose: 25.0 mg/kg/injection, schedule: Q01DX005 (ip), vehicle: saline) of the same compound?
**A.** Its T/C is 98 % of control.

**Q.** With CC1C(=O)CCC2(C)CCC(C)(C)CC12 (configuration not stated) as the compound, how does the T/C [1] read?
**A.** The T/C was 91 % of control.

**Q.** And the T/C [2]?
**A.** The T/C was 104 % of control.

**Q.** And the T/C (dose: 400.0 mg/kg/injection, schedule: Q01DX009 (ip), vehicle: saline with Tween-80)?
**A.** The T/C was 95 % of control.

**Q.** How did the T/C (dose: 100.0 mg/kg/injection, schedule: Q01DX001 (ip), vehicle: saline with Tween-80) turn out when Cc1cc(C)n(C2=NS(=O)(=O)c3ccccc3N2c2ccccc2)n1 was run?
**A.** The T/C was 102 % of control.

**Q.** What about the T/C (dose: 200.0 mg/kg/injection, schedule: Q01DX001 (ip), vehicle: saline with Tween-80) of the same compound?
**A.** Its T/C is 98 % of control.

**Q.** And the T/C (dose: 400.0 mg/kg/injection, schedule: Q01DX001 (ip), vehicle: saline with Tween-80)?
**A.** The T/C was 97 % of control.

**Q.** O=C(NC1CCCCC1)NS(=O)(=O)c1ccc(CCNC(=O)c2cccc3c2OCC3)cc1 was tested. Which T/C [3] did it give?
**A.** The T/C was 100 % of control.

**Q.** And the T/C [1]?
**A.** The T/C was 99 % of control.

**Q.** And the T/C [2]?
**A.** Its T/C is 98 % of control.

**Q.** Which results are given for O=C(O)c1ccccc1SSC(=S)N1CCOCC1?
**A.** T/C (dose: 50.0 mg/kg/injection, schedule: Q01DX009 (ip), vehicle: Klucel (hydroxypropylcellulose) (HPC)): 93 % of control; T/C (dose: 100.0 mg/kg/injection, schedule: Q01DX009 (ip), vehicle: Klucel (hydroxypropylcellulose) (HPC)): 108 % of control; T/C (dose: 200.0 mg/kg/injection, schedule: Q01DX009 (ip), vehicle: Klucel (hydroxypropylcellulose) (HPC)): 118 % of control

**Q.** For CCOC(=O)Oc1ccc(/C=N/NC(N)=S)nc1, which T/C [3] is on record?
**A.** The T/C was 163 % of control.

**Q.** And the T/C [1]?
**A.** The T/C was 93 % of control.

**Q.** How did the T/C [4] turn out when CC(C)N(CCNc1cccnc1[N+](=O)[O-])C(C)C was run?
**A.** Its T/C is 115 % of control.

**Q.** What about the T/C [5] of the same compound?
**A.** Its T/C is 108 % of control.

**Q.** What about the T/C [6] of the same compound?
**A.** Its T/C is 117 % of control.

**Q.** Which results are given for CC(=O)OC1CC(n2cc(C)c(=O)[nH]c2=O)OC1COP(=O)(N1CC1(C)C)N1CC1(C)C (configuration not stated)?
**A.** T/C (dose: 25.0 mg/kg/injection, schedule: Q04DX003 (ip), vehicle: saline with Tween-80): 110 % of control; T/C (dose: 200.0 mg/kg/injection, schedule: Q04DX003 (ip), vehicle: saline with Tween-80): 159 % of control

**Q.** Which results are given for CC1CC(C)(C)OC(C2CC=CCC2C)O1 (configuration not stated)?
**A.** T/C [7]: 97 % of control; T/C [8]: 100 % of control; T/C [9]: 109 % of control

**Q.** O=C1c2cccc(O)c2C(=O)c2c(OC3OC(CO)C(O)C(O)C3O)cccc21 (configuration not stated) was tested. Which T/C [4] did it give?
**A.** Its T/C is 94 % of control.

**Q.** And the T/C [5]?
**A.** The T/C was 93 % of control.

**Q.** And the T/C [6]?
**A.** Its T/C is 88 % of control.

**Q.** Which results are given for Oc1ccc(C2N=CNc3nc[nH]c32)c(O)c1 (configuration not stated)?
**A.** T/C [4]: 105 % of control; T/C [5]: 102 % of control; T/C [6]: 100 % of control

**Q.** With O=C1NC(=O)C(CCO)(c2ccccc2)C(=O)N1 as the compound, how does the T/C (dose: 60.0 mg/kg/injection, schedule: Q01DX005 (ip), vehicle: saline with Tween-80) read?
**A.** Its T/C is 88 % of control.

**Q.** And the T/C (dose: 120.0 mg/kg/injection, schedule: Q01DX005 (ip), vehicle: saline with Tween-80)?
**A.** Its T/C is 105 % of control.

**Q.** And the T/C (dose: 240.0 mg/kg/injection, schedule: Q01DX005 (ip), vehicle: saline with Tween-80)?
**A.** The T/C was 100 % of control.

**Q.** Cc1nc2ccccc2nc1NNc1ccccc1 was tested. Which T/C [7] did it give?
**A.** The T/C was 90 % of control.

**Q.** What about the T/C [8] of the same compound?
**A.** The T/C was 87 % of control.

**Q.** And the T/C [9]?
**A.** Its T/C is 87 % of control.

**Q.** With CCC/C(=N\O)C(O)(CCC)CCC as the compound, how does the T/C [3] read?
**A.** Its T/C is 89 % of control.

**Q.** What about the T/C [1] of the same compound?
**A.** The T/C was 89 % of control.

**Q.** What about the T/C [2] of the same compound?
**A.** The T/C was 89 % of control.

**Q.** Oc1ccccc1-c1cc(-c2ccccc2)nc(NCCCNc2nc(-c3ccccc3)cc(-c3ccccc3O)n2)n1 was tested. Which T/C (dose: 50.0 mg/kg/injection, schedule: Q01DX005 (ip), vehicle: Klucel (hydroxypropylcellulose) (HPC)) did it give?
**A.** Its T/C is 92 % of control.

**Q.** What about the T/C (dose: 100.0 mg/kg/injection, schedule: Q01DX005 (ip), vehicle: Klucel (hydroxypropylcellulose) (HPC)) of the same compound?
**A.** The T/C was 88 % of control.

**Q.** What about the T/C (dose: 200.0 mg/kg/injection, schedule: Q01DX005 (ip), vehicle: Klucel (hydroxypropylcellulose) (HPC)) of the same compound?
**A.** Its T/C is 86 % of control.
